Measurements published in PMC2726284, “Electron Crystallography Reveals Plasticity within the Drug Binding Site of the Small Multidrug Transporter EmrE” (Journal of Molecular Biology, 2008).

Experiments:
EmrE [1] = biological target: T1, EmrE (Escherichia coli, UniProt P23895); assay: [3H]TPP+ radioligand competition; exchange in 2-D crystals and cryo-EM projection map; assay type: binding
T1 construct: 6xHis-tagged EmrE, purified, detergent (DDM)-solubilized

EmrE [2] = biological target: T1, EmrE; assay: [3H]TPP+ radioligand competition; cryo-EM projection structure of 2-D co-crystals at […] Å; assay type: binding
EmrE [3] = biological target: T1, EmrE; assay: [3H]TPP+ radioligand binding to solubilized EmrE and 2-D crystals; settings: cited from earlier work

T1 sequence (P23895 whole entry): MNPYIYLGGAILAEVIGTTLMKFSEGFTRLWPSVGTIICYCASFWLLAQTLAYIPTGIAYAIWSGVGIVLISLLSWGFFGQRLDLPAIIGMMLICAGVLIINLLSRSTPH

In the case of CC[N+](C)(CC)CCC[n+]1c(-c2ccccc2)c2cc(N)ccc2c2ccc(N)cc21 [PP^2+, propidium], the Ki (EmrE [1]) is reported as 0.019 ± 0.004 µM.
In the case of CC[n+]1c(-c2ccccc2)c2cc(N)ccc2c2ccc(N)cc21 [Eth^+, ethidium], the Ki (EmrE [2]) is reported as 1 ± 0.9 µM.
In the case of c1ccc([P+](c2ccccc2)(c2ccccc2)c2ccccc2)cc1 [TPP^+, tetraphenylphosphonium], the Kd (EmrE [3]) is given as 0.0024 µM.
Work on Cc1cc(N)c2ccccc2[n+]1CCCCCCCCCC[n+]1c(C)cc(N)c2ccccc21 [DQ^2+, dequalinium] yielded a Ki (EmrE [1]) of 0.083 ± 0.009 µM.
